# Measurements as given in ChEMBL document CHEMBL2390876, “Synthesis and evaluation of 4,5-dihydro-5-methylisoxazolin-5-carboxamide derivatives as VLA-4 antagonists” (Bioorg Med Chem Lett, 2013).
# What was measured:
# in vitro [1] = conditions: human, liver microsomes
# in vitro [2] = conditions: mouse, liver microsomes
# in vitro [3] = conditions: rat, liver microsomes
structure (smiles),measurement,setting,value
CC(C1=NOC(C)(C(=O)N[C@@H](Cc2ccc(NC(=O)c3c(Cl)cccc3Cl)cc2)C(=O)O)C1)c1ccccc1 (stereo partly drawn),remaining at 0.5 h,in vitro [1],95%
same,remaining at 0.5 h,in vitro [2],99%
same,remaining at 0.5 h,in vitro [3],84.5%
